Data as given in patent publication US7582674B2, “Nutraceutical compositions and use thereof” (DSM IP Assets B.V., priority 2003, dated 2009).

Tests used:
[1] = tested on: murine macrophages RAW264.7; test: Inhibition of NO (nitrite, Griess reaction) production in LPS-stimulated macrophages; format: cell-based
Method: (§1) In order to induce an in vitro ‘inflammatory response’, murine macrophages RAW264.7 were seeded into microtiter plates or 12-well plates and stimulated with lipopolysaccharide (LPS) without or with graded amounts of the test substances. Vehicle concentrations (i.e. DMSO) were kept constant. Culture supernatants were harvested after appropriate periods of time (4 to 24 hours). Prostaglandin E2 (PGE2) and nitrite produced from nitric oxide (NO) secreted into the culture medium were quantified by ELISA and the Griess reaction, respectively. The percentage of inhibition of PGE2 or NO production at a given concentration of the test substances (compared to maximal production by LPS-stimulated cells) was calculated.

[2] = tested on: murine macrophages RAW264.7; test: Inhibition of PGE2 (ELISA) production in LPS-stimulated macrophages; format: cell-based; conditions: combination = actually determined inhibition
Method: as §1

Molecule: CCC=CCC=CCC=CCC=CCC=CCCCC(=O)O [EPA, 5,8,11,14,17-eicosapentaenoic acid]
- inhibition at 12.5 µM ([1]; Mus musculus, RAW264.7, Table 2, LPS stimulated macrophages, EPA 12.5 μM): 12.9%

Molecule: (−)-Epigallocatechin gallate [EGCG]
- % inhibition NO ([1]; Table 1, LPS-stimulated macrophages, each substance at 10 μM, combination = actually determined inhibition): 4.4%
- % inhibition PGE2 ([2]; Table 1, each substance at 10 μM): 1.8%

Molecule: Oc1ccc(C=Cc2cc(O)cc(O)c2)cc1 [Resveratrol, resveratrol]
- inhibition at 10 µM ([1]; Mus musculus, RAW264.7, Table 1, LPS-stimulated macrophages, each substance at 10 μM, combination = actually determined inhibition): 8.3%
- inhibition at 2 µM ([1]; Mus musculus, RAW264.7, Table 2, LPS stimulated macrophages, Resveratrol 2 μM): 10%
- inhibition at 10 µM ([2]; Mus musculus, RAW264.7, Table 1, each substance at 10 μM): 26.8%
